US9277697B2, “Compositions and methods for anti-transpiration in plants” (Innovation Hammer, LLC, priority 2004, dated 2016)

How the values were obtained:
[1] = tested on: pectic cell; assay: Penetration and integration of saccharides
[2] = tested on: Lantana; assay: Growth promotion with iron-Mac formulations versus component controls; format: in vivo; conditions: 12 ppm iron-Mac, 12 ppm Fe—Na2EDTA, 50 mM (NH4)2SO4
Description: (§1) Dilute the mixture in an appropriate volume of water. Mix until the compounds are dissolved. Spray the resulting formulation on the plant foliage (e.g. New Guinea Impatiens) so that the foliage glistens. Allow a day for leaf uptake. The following results are of growth promotion using iron-Mac formulations of the invention versus conventionally cultured controls and with identical quantities of each of the components as separate controls.

[3] = tested on: Rice; assay: as above; format: in vivo; conditions: 12 ppm iron-Mac, 12 ppm Fe—Na2EDTA, 50 mM (NH4)2SO4
Description: as §1

[4] = tested on: Cabbage; assay: as above; format: in vivo; conditions: 12 ppm iron-Mac, 12 ppm Fe—Na2EDTA, 50 mM (NH4)2SO4
Description: as §1

[5] = tested on: Rice, Lantana, Cabbage; assay: Yield with iron-Mac formulations versus component controls, all plant types; format: in vivo; conditions: for all plant types; 12 ppm Fe—Na2EDTA, 50 mM (NH4)2SO4
Description: as §1

[6] = tested on: weeds; assay: Weed kill by tank-mixes of saccharides, herbicide and ammonium sulfate; format: in vivo; conditions: 1 lb/acre glyphosate; additive 1:1 methyl glucosides to organic ammonium sulfates
Text: The inherent benefit of the reduction of productivity observed by surface coatings was exploited by utilizing their weakening effects as additives to enhance weed kill of pesticides. In sets of replicated trials, weeds were given tank-mixes with saccharides, herbicides, and ammonium sulfate fertilizer. Perhaps the most widely used herbicide, N-phosphonomethylglycine (PO(OH)2CH2.2NHCH2COOH), is commonly referred to as glyphosate, and is most abundantly found formulated as a water-soluble mono-isopropylamine (IPA) salt or sodium salt, hereinafter referred to as glyphosate, meant to include salts, thereof. The preferred formulation of the present invention is a blend of 4 lbs./acre to 5 lbs./acre glyphosate; 10 lbs./acre to 100 lbs./acre of 60% to 100% methyl glucosides in a 1:1 to 3:1 blend with ammonium sulfate; and with optional surfactant. After foliar application, inhibitory methods yielded approximately 50% to 85% improved response of weeds to herbicide and additives over positive controls. […] An additional benefit is the reversal of the weakening effect of treatments to plants that have been genetically engineered for herbicide resistance. After treatment with a tank mix of herbicide and Series 1 components, a Series 2 formulation of Ca^2+-chelators may be sprayed over a Series 1 treatment once the herbicide has killed its targeted weeds. […]

CCCCCCCCCCCCCCO[C@@H]1O[C@H](CO)[C@@H](O[C@@H]2O[C@@H](CO)[C@H](O)[C@@H](O)[C@@H]2O)[C@H](O)[C@H]1O (stereo in doubt) [tetradecylmaltoside]
penetration and integration [1]: neither penetrate nor integrate

N.N.O=S(=O)(O)O [(NH4)2SO4]
Result (growth promotion) [2]: retarded
Result (growth promotion) [3]: retarded
Result (growth promotion) [4]: retarded
yield reduction [5]: 5% reduction

O=C(O)CNCP(=O)(O)O [glyphosate, N-phosphonomethylglycine]
lethal dose response [6]: 100%

CC(=O)OC[C@H]1OC(OC(C)=O)[C@H](OC(C)=O)[C@@H](OC(C)=O)[C@H]1OC(C)=O (some centres unmarked) [pentaace tylgalactopyranose]
penetration and integration [1]: neither penetrate nor integrate

CC(=O)OC[C@H]1OC(OC(C)=O)[C@H](OC(C)=O)[C@@H](OC(C)=O)[C@@H]1OC(C)=O (some centres unmarked) [pentaace tylglucopyranose]
penetration and integration [1]: neither penetrate nor integrate

CC(=O)OC[C@H]1OC(OC(C)=O)[C@@H](OC(C)=O)[C@@H](OC(C)=O)[C@@H]1OC(C)=O (some centres unmarked) [pentaacetylmanno-pyranose]
penetration and integration [1]: neither penetrate nor integrate

CC(=O)OC[C@H]1OC(Oc2ccccc2)[C@H](OC(C)=O)[C@@H](OC(C)=O)[C@@H]1OC(C)=O (some centres unmarked) [phenyltetraacetylglucoside]
penetration and integration [1]: neither penetrate nor integrate

Fe—Na2EDTA
Result (growth promotion) [2]: phytotoxic
Result (growth promotion) [3]: phytotoxic
Result (growth promotion) [4]: phytotoxic
yield reduction [5]: 5% reduction
